According to paper PMC11604048, “Constrained TACC3 peptidomimetics for a non-canonical protein–protein interface elucidate allosteric communication in Aurora-A kinase” (Chemical Science, 2024):
Substitutions are numbered along the chain they refer to. Numbers in names are those of the source. Like-named read-outs stand apart in the source and are kept apart here. *1 amine or outer side, *2 acyl side, *3 side chain or, on linkers, in order; H or OH if unused. Where a SMILES comes first, the peptide text is derived from it. Bridges are numbered along the chain shown (N, C = ends). [ ]: non-standard residue; d: D form. Biphenyl(4,4'-CH2)2 = c1cc(-c2ccc(C[*:2])cc2)ccc1C[*:1]; Pro(trans-4-F) = O=C(O)[C@@H]1C[C@@H](F)CN1; Phe(4-I) = N[C@@H](Cc1ccc(I)cc1)C(=O)O

Columns and labels:
[1] = biological target: T1, Aurora-A122-403-C290A/C393A (Homo sapiens, UniProt O14965, C290A/C393A); assay: Isothermal titration calorimetry (ITC); format: binding; settings: for Kd / -TΔS° / N (stoichiometry) / ΔG° / ΔH°: ITC as E13
T1 construct: Human Aurora-A kinase domain 122-403 wild-type or C290A/ C393A mutant; His tag (pET30TEV vector) (N, cleaved yes); made in house; host or cells: E. coli RIL, co-expressed with lambda phosphatase (Aurora-A); tracer by solid phase synthesis
T1 sequence (O14965 122-403 C290A/C393A): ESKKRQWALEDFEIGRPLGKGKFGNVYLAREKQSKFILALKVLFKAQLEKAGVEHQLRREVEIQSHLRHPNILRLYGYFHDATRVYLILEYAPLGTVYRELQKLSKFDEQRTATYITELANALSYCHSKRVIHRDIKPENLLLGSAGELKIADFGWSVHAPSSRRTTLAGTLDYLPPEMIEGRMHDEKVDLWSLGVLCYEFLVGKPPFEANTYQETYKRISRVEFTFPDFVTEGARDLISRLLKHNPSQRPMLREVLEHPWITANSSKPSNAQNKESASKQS
Protocol: Isothermal titration calorimetry (ITC). ITC experiments were carried out using a MicroCal PEAQ-ITC system (Malvern Panalytical) at 25 °C. A stock solution of Aurora-A 122-403-290A/C393A was dialyzed into ITC buffer overnight (25 mM Tris buffer, pH= 7.5; 150 mM NaCl; 5 mM MgCl2; 5 % v/v glycerol), and the same buffer was employed to resuspend a solid portion of the testing peptides. For each experiment, initially, the cell was filled with 275 µl of Aurora-A122-403-290A/C393A (46 μM) and the syringe was loaded with the corresponding peptide at 1.25 mM concentration. An initial injection of 0.5 μL was then followed by 13 injections of 3 μL, every 150 s, with a constant syringe rotation speed of 750 rpm throughout. The signal for the enthalpy of dilution of each peptide into buffer was independently measured in a control titration experiment and then subtracted from the experimental binding traces. The Kd, ΔG°, ΔH° and -TΔS° values were determined via the MicroCal PEAQ-ITC analysis software (Malvern Paranalytical) using a single-site binding model. […]

[2] = biological target: T1, Aurora-A122-403-C290A/C393A; assay: Competition FA assay against FAM-Ahx-TACC3 522-536 tracer; format: binding; settings: SD; read-out: IC50
[3] = Peptide enzymatic degradation assay, α-chymotrypsin; format: in vitro ADME, bovine; settings: α-chymotrypsin (bovine pancreas), peptide 100 µM, peptide/enzyme molar ratio [P]/[E]= 25, HEPES 25 mM, pH 7.5, 25 °C, 6 hours, RP-HPLC peak area, exponential decay fit, three independent experiments, mean ± SD, SD, read-out: t1/2 in the presence of α-chymotrypsin
Protocol: (§1) into individual aliquots at -20 °C. […]
(§2) a concentration of 1 mg mL−1 concentration. The digestion samples were immediately prepared by mixing […]
(§3) were then incubated at 25 °C for 6 hours. […]
(§4) thermo-shaker for 6 hours. […]
(§5) presence of enzyme (t=0). […]
(§6) r = r଴ + A x e భ Eq. (SI - 10)
(§7) τ = tଵ ln(2) Eq. (SI - 11)
(§8) In all cases, control samples were […]
(§9) replicates and error bars indicating the corresponding SD. […]

[4] = biological target: T2, α-chymotrypsin (bovine pancreas) (Bos taurus, UniProt P00766); assay: as above; format: in vitro ADME; settings: as E58; for stability to α-chymotrypsin (in words): compared with WT sequence
T2 construct: purchased Sigma; host or cells: bovine pancreas
Protocol: as §1, §2, §3, §4, §5, §6, §7, §8, §9

Trypsin [5] = assay: Peptide enzymatic degradation assay, trypsin; settings: as E60, compared with WT TACC3 518-532
Trypsin [6] = settings: pH 7.5
[7] = biological target: T3, Aurora-A122-403-C290A/C393A (N-Myc/Aurora-A interaction) (Homo sapiens, UniProt O14965, C290A/C393A); assay: FA competition assay against FAM-Ahx-N-Myc61-89; format: binding; settings: SD; read-out: IC50 (N-Myc displacement)
T3 construct: Human Aurora-A kinase domain 122-403 wild-type or C290A/ C393A mutant; His tag (pET30TEV vector) (N, cleaved yes); made in house; host or cells: E. coli RIL, co-expressed with lambda phosphatase (Aurora-A)
T3 sequence (O14965 122-403 C290A/C393A): T1 sequence (O14965 122-403 C290A/C393A)
Protocol: (1 picture or pasted object on this page, not shown here)
FA competition assays were performed using the same plates and buffer as described above, with the initial […]
14 points in a 1/2 regime. […]
after 4 h of incubation to enable appropriate sample equilibration. To prevent sample oxidation, when sulfhydryl peptides were analyzed DTT was added to the buffer (5 mM). In competition mode, the average anisotropy and the average standard deviation of the values derived from equation SI-6 were calculated […]
When using peptides for which full
For consistency, all the data […]
indicating the corresponding SD.
Molecular dynamics (MD) analyses: All peptide–protein complexes were subjected to duplicate MD simulations using YASARA structure.13 Starting from the reported x-ray crystal structure of one molecule of […]
modifications were introduced by direct replacement of the relevant atoms within the structure. When needed, biphenyl constraints were modeled in YASARA by swapping the pertinent amino acids for cysteines and connecting them to biphenyl- fragments. […]
crystal structure), and then minimised structures were generated using the energy minimization function with default settings. The modelled complexes were subjected to MD simulations using YASARA structure macro for fast MD run (www.yasara.org/md_runfast.mcr).14 Briefly, the AMBER14 forcefield was used and […]

Aurora-A 122-403 [8] = biological target: T4, Aurora-A 122-403 (Homo sapiens, UniProt O14965); assay: fluorescence anisotropy competition against TPX2
T4 chain: T1 sequence (O14965 122-403 C290A/C393A) with A169C, A272C

Aurora-A 122-403 [9] = biological target: T4, Aurora-A 122-403; assay: fluorescence anisotropy competition against N-Myc
[10] = N unrestrained fit, single titration

**Q.** Which Kd ([1]; N restrained fit, Run 1) does the source give for `CC(=O)N[C@@H](CC(C)C)C(=O)N[C@@H](CCC(=O)O)C(=O)N[C@@H](CC(C)C)C(=O)N[C@@H](CCCCN)C(=O)N[C@@H](CCC(=O)O)C(=O)N[C@@H](CCC(=O)O)C(=O)N[C@@H](CO)C(=O)N[C@@H](Cc1ccccc1)C(=O)N[C@@H](CCCNC(=N)N)C(=O)N[C@@H](CC(=O)O)C(=O)N1CCC[C@H]1C(=O)N[C@@H](C)C(=O)N[C@@H](CCC(=O)O)C(=O)N[C@H](C(=O)N[C@@H](CC(C)C)C(N)=O)C(C)C` [TACC3 518-532] here?
**A.** Its Kd is 30.3 µM.

**Q.** What about the Kd ([1]; N restrained fit, Run 2) of the same molecule?
**A.** The Kd was 34.5 µM.

**Q.** What about the Kd ([1]; N unrestrained fit, Run 1) of the same molecule?
**A.** Its Kd is 46 µM.

**Q.** What about the Kd ([1]; N unrestrained fit, Run 2) of the same molecule?
**A.** The Kd was 36.8 µM.

**Q.** And the IC50 [2]?
**A.** The IC50 was 123 ± 6 µM.

**Q.** And the half-life at 100 µM ([3]; isolated enzyme chymotrypsin)?
**A.** The half-life at 100 µM was 32 ± 4 min.

**Q.** Which results are given for `CC(=O)N[C@@H](CC(C)C)C(=O)N[C@@H](CCC(=O)O)C(=O)N[C@@H](CC(C)C)C(=O)N[C@@H](CCCCN)C(=O)N[C@@H](CCC(=O)O)C(=O)N[C@@H](CCC(=O)O)C(=O)N[C@H]1CSCc2ccc(cc2)-c2ccc(cc2)CSC[C@@H](C(=O)N[C@H](C(=O)N[C@@H](CC(C)C)C(N)=O)C(C)C)NC(=O)[C@H](C)NC(=O)[C@@H]2C[C@@H](F)CN2C(=O)[C@H](CC(=O)O)NC(=O)[C@H](CCCNC(=N)N)NC(=O)[C@H](Cc2ccc(I)cc2)NC1=O` [TACC3 518-532-S/E-Bph-IF/fP] (Ac-LELKEEC[Phe(4-I)]RD[Pro(trans-4-F)]ACVL-NH2; linker 7-13 via Biphenyl(4,4'-CH2)2)?
**A.** -TΔS° [1, 10]: -4.47 kcal/mol; Kd [1, 10]: 16.7 µM; N (stoichiometry) [1, 10]: 1.62; ΔG° [1, 10]: -6.52 kcal/mol; ΔH° [1, 10]: -2.06 kcal/mol; IC50 [2]: 12 ± 1 µM; half-life at 100 µM [3]: 26 ± 2 min; stability to α-chymotrypsin (in words) [4]: not protected; stability to trypsin (in words) (Trypsin [5]): only partially improved stability; stability to trypsin (in words) (Trypsin [5]; listed as S/E constrained variant): not protected

**Q.** Which results are given for `CC(=O)N[C@@H](CC(C)C)C(=O)N[C@@H](CCC(=O)O)C(=O)N[C@H]1CSCc2ccc(cc2)-c2ccc(cc2)CSC[C@@H](C(=O)N[C@@H](CC(=O)O)C(=O)N2C[C@H](F)C[C@H]2C(=O)N[C@@H](C)C(=O)N[C@@H](CCC(=O)O)C(=O)N[C@H](C(=O)N[C@@H](CC(C)C)C(N)=O)C(C)C)NC(=O)[C@H](Cc2ccc(I)cc2)NC(=O)[C@H](CO)NC(=O)[C@H](CCC(=O)O)NC(=O)[C@H](CCC(=O)O)NC(=O)[C@H](CCCCN)NC1=O` [TACC3 518-532-L/R-Bph-IF/fP] (Ac-LECKEES[Phe(4-I)]CD[Pro(trans-4-F)]AEVL-NH2; linker 3-9 via Biphenyl(4,4'-CH2)2)?
**A.** -TΔS° ([1]; N restrained fit, Run 1): -5.5 kcal/mol; Kd ([1]; N restrained fit, Run 1): 5.6 µM; ΔG° ([1]; N restrained fit, Run 1): -7.17 kcal/mol; ΔH° ([1]; N restrained fit, Run 1): -1.65 kcal/mol; -TΔS° ([1]; N restrained fit, Run 2): -5.33 kcal/mol; Kd ([1]; N restrained fit, Run 2): 5.9 µM; ΔG° ([1]; N restrained fit, Run 2): -7.15 kcal/mol; ΔH° ([1]; N restrained fit, Run 2): -1.79 kcal/mol; -TΔS° ([1]; N unrestrained fit, Run 1): -5.71 kcal/mol; Kd ([1]; N unrestrained fit, Run 1): 4.6 µM; N (stoichiometry) ([1]; N unrestrained fit, Run 1): 1.06; ΔG° ([1]; N unrestrained fit, Run 1): -7.29 kcal/mol; ΔH° ([1]; N unrestrained fit, Run 1): -1.55 kcal/mol; -TΔS° ([1]; N unrestrained fit, Run 2): -5.43 kcal/mol; Kd ([1]; N unrestrained fit, Run 2): 5.5 µM; N (stoichiometry) ([1]; N unrestrained fit, Run 2): 1.02; ΔG° ([1]; N unrestrained fit, Run 2): -7.17 kcal/mol; ΔH° ([1]; N unrestrained fit, Run 2): -1.74 kcal/mol; -TΔS ([1]; ITC as E40, average of two independent titrations): -5.43 kcal/mol; IC50 [2]: 17 ± 1 µM; time resistant to chymotrypsin with no cleavage by-products detected ([4]; HPLC and LC/MS analysis): ~ 6 hr; stability to α-chymotrypsin (in words) [4]: increased resistance; t1/2 in the presence of trypsin (Trypsin [6]): ≥ 330 min; stability to trypsin (in words) (Trypsin [5]): increased resistance; IC50 [7]: 28.3 ± 1.2 µM

B1: TACC3 L/R-Bph-I/fP 518-532 (peptide)
chain: LELKEESFRDPAEVL
modifications: not fully specified; L520C/R526C biphenyl constraint, (4-I)Phe525, trans-(4-F)Pro528; Aurora-A C290A+C393A
**Q.** With B1 as the molecule, how does the IC50 (Aurora-A 122-403 [8]) read?
**A.** The IC50 was > 200 µM.

**Q.** What about the IC50 (Aurora-A 122-403 [9]) of the same molecule?
**A.** Its IC50 is 28 µM.
